Assay results: patent US11498899B2, “Nitrone herbicides” (FMC Corporation, priority 2016, dated 2022)

Columns and labels:
[1] = system: barnyardgrass (Echinochloa crus-galli); assay: Test B flooded paddy test, visual rating 0-100; conditions: Flood, 250 g ai/ha, applied to paddy water, rated after 13 to 15 days
[2] = system: foxtail, giant (giant foxtail, Setaria faberii); assay: Test A preemergence, visual injury rating 0-100; type: in vivo
[3] = system: pigweed (Amaranthus retroflexus); assay: Test A preemergence, visual injury rating 0-100; type: in vivo
[4] = system: ragweed (common ragweed, Ambrosia elatior); assay: Test A preemergence, visual injury rating 0-100; type: in vivo
[5] = system: ryegrass, Italian (Italian ryegrass, Lolium multiflorum); assay: Test A preemergence, visual injury rating 0-100; type: in vivo
kochia (Kochia scoparia) [6] = assay: Test A preemergence, visual injury rating 0-100; type: in vivo
rice (Oryza sativa) = assay: Test B flooded paddy test, visual rating 0-100 (0 no effect, 100 complete control); conditions: Flood, 250 g ai/ha, applied to paddy water, rated after 13 to 15 days
[7] = system: ducksalad (Heteranthera limosa); assay: Test B flooded paddy test, visual rating 0-100; conditions: Flood, 250 g ai/ha, applied to paddy water, rated after 13 to 15 days
[8] = system: barnyardgrass (Echinochloa crus-galli); assay: Test A preemergence, visual injury rating 0-100 (0 no effect, 100 complete control); type: in vivo
[9] = system: foxtail, giant (giant foxtail, Setaria faberii); assay: Test A postemergence, visual injury rating 0-100; type: in vivo; conditions: 0 to 100 scale
[10] = system: wheat (Triticum aestivum); assay: Test A postemergence, visual injury rating 0-100; type: in vivo; conditions: 0 to 100 scale
[11] = system: barnyardgrass (Echinochloa crus-galli); assay: Test A postemergence, visual injury rating 0-100; type: in vivo; conditions: 0 to 100 scale
[12] = system: pigweed (Amaranthus retroflexus); assay: Test A postemergence, visual injury rating 0-100; type: in vivo; conditions: 0 to 100 scale
[13] = system: blackgrass (Alopecurus myosuroides); assay: Test A postemergence, visual injury rating 0-100; type: in vivo; conditions: 0 to 100 scale
[14] = system: ragweed (common ragweed, Ambrosia elatior); assay: Test A postemergence, visual injury rating 0-100; type: in vivo; conditions: 0 to 100 scale
[15] = system: ryegrass, Italian (Italian ryegrass, Lolium multiflorum); assay: Test A postemergence, visual injury rating 0-100; type: in vivo; conditions: 0 to 100 scale
[16] = system: galium (catchweed bedstraw, Galium aparine); assay: Test A postemergence, visual injury rating 0-100; type: in vivo; conditions: 0 to 100 scale
kochia (Kochia scoparia) [17] = assay: Test A postemergence, visual injury rating 0-100; type: in vivo; conditions: 0 to 100 scale
corn (Zea mays) = assay: Test A postemergence, visual injury rating 0-100; type: in vivo; conditions: 0 to 100 scale

Compound	Barnyardgrass plant response rating (0 to 100 scale) [1]	Foxtail, Giant plant response rating (0 to 100 scale) ([2]; 125 g ai/ha)	Foxtail, Giant plant response rating (0 to 100 scale) ([2]; 500 g ai/ha)	Pigweed plant response rating (0 to 100 scale) ([3]; 125 g ai/ha)	Pigweed plant response rating (0 to 100 scale) ([3]; 500 g ai/ha)	Ragweed plant response rating (0 to 100 scale) ([4]; 125 g ai/ha)	Ragweed plant response rating (0 to 100 scale) ([4]; 500 g ai/ha)	Ryegrass, Italian plant response rating (0 to 100 scale) ([5]; 125 g ai/ha)	Ryegrass, Italian plant response rating (0 to 100 scale) ([5]; 500 g ai/ha)	Kochia plant response rating (0 to 100 scale) (kochia (Kochia scoparia) [6]; 125 g ai/ha)	Kochia plant response rating (0 to 100 scale) (kochia (Kochia scoparia) [6]; 500 g ai/ha)	Rice plant response rating (0 to 100 scale) (rice (Oryza sativa))	Ducksalad plant response rating (0 to 100 scale) [7]	Barnyardgrass plant response rating (0 to 100 scale) ([8]; 125 g ai/ha)	Barnyardgrass plant response rating (0 to 100 scale) ([8]; 500 g ai/ha)	Foxtail, Giant plant response rating ([9]; 125 g ai/ha)	Foxtail, Giant plant response rating ([9]; 500 g ai/ha)	Wheat plant response rating ([10]; 125 g ai/ha)	Wheat plant response rating ([10]; 500 g ai/ha)	Barnyardgrass plant response rating ([11]; 125 g ai/ha)	further results
CC1=[N+]([O-])C(C(=O)Nc2cccc(F)c2F)C(c2cc(F)ccc2C)C1 (racemic) [Compound 81]	25	60	90	0	20	0	0	0	10	0	50	0	100	90	90	60	80	0	30	80	Barnyardgrass plant response rating ([11]; 500 g ai/ha): 80; Pigweed plant response rating ([12]; 125 g ai/ha): 0; Pigweed plant response rating ([12]; 500 g ai/ha): 0; Blackgrass plant response rating ([13]; 125 g ai/ha): 0; Blackgrass plant response rating ([13]; 500 g ai/ha): 50; Ragweed plant response rating ([14]; 125 g ai/ha): 0; Ragweed plant response rating ([14]; 500 g ai/ha): 0; Ryegrass, Italian plant response rating ([15]; 125 g ai/ha): 0; Ryegrass, Italian plant response rating ([15]; 500 g ai/ha): 20; Galium plant response rating ([16]; 125 g ai/ha): 0; Galium plant response rating ([16]; 500 g ai/ha): 30; Kochia plant response rating (kochia (Kochia scoparia) [17]; 125 g ai/ha): 0; Kochia plant response rating (kochia (Kochia scoparia) [17]; 500 g ai/ha): 0; Corn plant response rating (corn (Zea mays); 125 g ai/ha): 20; Corn plant response rating (corn (Zea mays); 500 g ai/ha): 20
CC1=[N+]([O-])C(C(=O)Nc2cccc(F)c2F)C(c2cc(C)nc(OC(F)F)c2)C1 (racemic) [Compound 83]	80	90	90	60	90	10	90	70	90	0	50	0	75	90	90	80	90	60	80	80	Barnyardgrass plant response rating ([11]; 500 g ai/ha): 90; Pigweed plant response rating ([12]; 125 g ai/ha): 30; Pigweed plant response rating ([12]; 500 g ai/ha): 80; Blackgrass plant response rating ([13]; 125 g ai/ha): 70; Blackgrass plant response rating ([13]; 500 g ai/ha): 80; Ragweed plant response rating ([14]; 125 g ai/ha): 30; Ragweed plant response rating ([14]; 500 g ai/ha): 70; Ryegrass, Italian plant response rating ([15]; 125 g ai/ha): 60; Ryegrass, Italian plant response rating ([15]; 500 g ai/ha): 80; Galium plant response rating ([16]; 125 g ai/ha): 60; Galium plant response rating ([16]; 500 g ai/ha): 70; Kochia plant response rating (kochia (Kochia scoparia) [17]; 125 g ai/ha): 30; Kochia plant response rating (kochia (Kochia scoparia) [17]; 500 g ai/ha): 50; Corn plant response rating (corn (Zea mays); 125 g ai/ha): 70; Corn plant response rating (corn (Zea mays); 500 g ai/ha): 90
CC1=[N+]([O-])C(C(=O)Nc2cccc(F)c2F)C(c2cc(F)c(F)c(Oc3ncc(F)cn3)c2)C1 (racemic) [Compound 85]	0	80	100	50	0	0	0	60	90	0	10	0	0	80	100	60	80	50	90	40	Barnyardgrass plant response rating ([11]; 500 g ai/ha): 80; Pigweed plant response rating ([12]; 125 g ai/ha): 0; Pigweed plant response rating ([12]; 500 g ai/ha): 0; Blackgrass plant response rating ([13]; 125 g ai/ha): 60; Blackgrass plant response rating ([13]; 500 g ai/ha): 80; Ragweed plant response rating ([14]; 125 g ai/ha): 0; Ragweed plant response rating ([14]; 500 g ai/ha): 0; Ryegrass, Italian plant response rating ([15]; 125 g ai/ha): 0; Ryegrass, Italian plant response rating ([15]; 500 g ai/ha): 60; Galium plant response rating ([16]; 125 g ai/ha): 20; Galium plant response rating ([16]; 500 g ai/ha): 30; Kochia plant response rating (kochia (Kochia scoparia) [17]; 125 g ai/ha): 0; Kochia plant response rating (kochia (Kochia scoparia) [17]; 500 g ai/ha): 0; Corn plant response rating (corn (Zea mays); 125 g ai/ha): 60; Corn plant response rating (corn (Zea mays); 500 g ai/ha): 90
CC1=[N+]([O-])C(C(=O)Nc2cccc(F)c2F)C(c2cc(C)n(Cc3ccc(Cl)cc3)c(=O)c2)C1 (racemic) [Compound 86]	0	0	0	0	0	0	0	0	0	0	0	0	0	0	0	0	0	0	0	0	Barnyardgrass plant response rating ([11]; 500 g ai/ha): 0; Pigweed plant response rating ([12]; 125 g ai/ha): 0; Pigweed plant response rating ([12]; 500 g ai/ha): 0; Blackgrass plant response rating ([13]; 125 g ai/ha): 0; Blackgrass plant response rating ([13]; 500 g ai/ha): 0; Ragweed plant response rating ([14]; 125 g ai/ha): 0; Ragweed plant response rating ([14]; 500 g ai/ha): 0; Ryegrass, Italian plant response rating ([15]; 125 g ai/ha): 0; Ryegrass, Italian plant response rating ([15]; 500 g ai/ha): 0; Galium plant response rating ([16]; 125 g ai/ha): 0; Galium plant response rating ([16]; 500 g ai/ha): 0; Kochia plant response rating (kochia (Kochia scoparia) [17]; 125 g ai/ha): 0; Kochia plant response rating (kochia (Kochia scoparia) [17]; 500 g ai/ha): 0; Corn plant response rating (corn (Zea mays); 125 g ai/ha): 0; Corn plant response rating (corn (Zea mays); 500 g ai/ha): 10
